According to patent US9409870B2, “Compounds” (CHIESI FARMACEUTICI S.p.A., priority 2014, dated 2016):

Biological target: T1, human neutrophil elastase (HNE) (Homo sapiens, UniProt P08246)
T1 construct: purchased Sigma E8140
T1 sequence (P08246 30-247 limits assumed): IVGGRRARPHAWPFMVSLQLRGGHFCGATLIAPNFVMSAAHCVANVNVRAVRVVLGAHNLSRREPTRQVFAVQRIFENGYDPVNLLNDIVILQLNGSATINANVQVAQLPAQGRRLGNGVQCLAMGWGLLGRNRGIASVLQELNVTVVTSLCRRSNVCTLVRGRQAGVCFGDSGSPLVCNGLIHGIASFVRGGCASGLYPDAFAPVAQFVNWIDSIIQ
Experiment: HNE enzyme activity assay (fluorogenic peptide substrate MeOSuc-Ala-Ala-Pro-Val-AMC)
Format: biochemical
Conditions: human leukocyte elastase 0.00072 U/mL, substrate 100 μM, 25° C., 30 minutes, pH 7.5; at least two separate experiments; read-out: FINE inhibition (HNE enzyme inhibition, IC50 values)
Procedure: Compounds of this invention were tested for potency in a human neutrophil elastase (HNE) enzyme activity assay.
Assays were performed in 96-well plates in a total assay volume of 100 μL. The final concentration of elastase enzyme (human leukocyte elastase, Sigma E8140) was 0.00072 U/mL. The peptide substrate (MeOSuc-Ala-Ala-Pro-Val-AMC, Calbiochem #324740) was used at a final concentration of 100 μM. The final concentration of DMSO was 1% in the assay buffer (0.05M Tris.HCl, 0.1M NaCl, 0.1M CaCl2, 0.0005% brij-35, pH 7.5). The enzymatic reaction was started by addition of the enzyme and incubated at 25° C. for 30 minutes. After incubation, the reaction was stopped by addition of soybean trypsin inhibitor (Sigma T9003) at a final concentration of 50 μg/well. Fluorescence was measured using a Molecular Devices fluorescence plate reader using 380 nm excitation and 460 nm emission wavelengths.
A dose response to each compound was performed and the effect of compound in each experiment was expressed as a percentage inhibition of the control enzyme fluorescence. Dose response curves were plotted and compound potency (IC50) was determined. Compounds were tested in at least two separate experiments.

SMILES | IC50 [nM]
Cc1c(-c2ccnn2-c2ccc(C#N)cc2)n(C(=O)NCc2ccccn2)c(=O)n1-c1cccc(C(F)(F)F)c1 [Example 49, 5-[2-(4-Cyano-phenyl)-2H-pyrazol-3-yl]-4-methyl-2-oxo-3-(3-trifluoromethyl-phenyl)-2,3-dihydro-imidazole-1-carboxylic acid (pyridin-2-ylmethyl)-amide] | 1 to 10
Cc1c(-c2ccnn2-c2ccc(C#N)cc2)n(C(=O)NCc2cccnc2)c(=O)n1-c1cccc(C(F)(F)F)c1 [Example 50, 5-[2-(4-Cyano-phenyl)-2H-pyrazol-3-yl]-4-methyl-2-oxo-3-(3-trifluoromethyl-phenyl)-2,3-dihydro-imidazole-1-carboxylic acid (pyridin-3-ylmethyl)-amide] | 1 to 10
Cc1c(-c2ccnn2-c2ccc(C#N)cc2)n(C(=O)NCc2ccncc2)c(=O)n1-c1cccc(C(F)(F)F)c1 [Example 51, 5-[2-(4-Cyano-phenyl)-2H-pyrazol-3-yl]-4-methyl-2-oxo-3-(3-trifluoromethyl-phenyl)-2,3-dihydro-imidazole-1-carboxylic acid (pyridin-4-ylmethyl)-amide] | < 1
Cc1c(-c2ccnn2-c2ccc(C#N)cc2)n(C(=O)NCc2cnccn2)c(=O)n1-c1cccc(C(F)(F)F)c1 [Example 52, 5-[2-(4-Cyano-phenyl)-2H-pyrazol-3-yl]-4-methyl-2-oxo-3-(3-trifluoromethyl-phenyl)-2,3-dihydro-imidazole-1-carboxylic acid (pyrazin-2-ylmethyl)-amide] | 1 to 10
Cc1c(-c2ccn(-c3ccc(C#N)cc3Br)n2)n(C(=O)NC2CCCC2)c(=O)n1-c1cccc(C(F)(F)F)c1 [Example 57, 5-[1-(2-Bromo-4-cyano-phenyl)-1H-pyrazol-3-yl]-4-methyl-2-oxo-3-(3-trifluoromethyl-phenyl)-2,3-dihydro-imidazole-1-carboxylic acid cyclopentylamide] | 10 to 50
Cc1c(-c2ccnn2-c2ccc(C#N)cc2F)n(C(=O)NC2CCCC2)c(=O)n1-c1cccc(C(F)(F)F)c1 [Example 58, 5-[2-(4-Cyano-2-fluoro-phenyl)-2H-pyrazol-3-yl]-4-methyl-2-oxo-3-(3-trifluoromethyl-phenyl)-2,3-dihydro-imidazole-1-carboxylic acid cyclopentylamide] | < 1
Cc1c(-c2nccn2-c2ccc(C#N)cc2)[nH]c(=O)n1-c1cccc(C(F)(F)F)c1 [Example 59, 4-[5′-Methyl-2′-oxo-1′-(3-trifluoromethyl-phenyl)-2′,3′-dihydro-1′H-[2,4]biimidazolyl-1-yl]-benzonitrile] | 10 to 50
Cc1c(-c2nccn2-c2ccc(C#N)cc2)n(C(=O)NCc2ccc(S(C)(=O)=O)cc2)c(=O)n1-c1cccc(C(F)(F)F)c1 [Example 62, 1-(4-Cyano-phenyl)-5′-methyl-2′-oxo-1′-(3-trifluoromethyl-phenyl)-1′,2′-dihydro-1H-[2,4′]biimidazolyl-3′-carboxylic acid 4-methanesulfonyl-benzylamide] | < 1

The remaining lines, values ahead:

IC50 [nM] | SMILES
< 1 | Cc1c(-c2ccnn2-c2ccc(C#N)cc2)n(C(=O)N[C@@H]2CCC[C@H]2O)c(=O)n1-c1cccc(C(F)(F)F)c1 [Example 53, 5-[2-(4-Cyano-phenyl)-2H-pyrazol-3-yl]-4-methyl-2-oxo-3-(3-trifluoromethyl-phenyl)-2,3-dihydro-imidazole-1-carboxylic acid ((1R,2R)-2-hydroxy-cyclopentyl)-amide]
1 to 10 | Cc1c(-c2ccnn2-c2ccc(C#N)cc2)n(C(=O)NCC2CCN(C)CC2)c(=O)n1-c1cccc(C(F)(F)F)c1 [Example 54, 5-[2-(4-Cyano-phenyl)-2H-pyrazol-3-yl]-4-methyl-2-oxo-3-(3-trifluoromethyl-phenyl)-2,3-dihydro-imidazole-1-carboxylic acid (1-methyl-piperidin-4-ylmethyl)-amide]
> 50 | Cc1c(-c2ccnn2-c2ccc(C#N)cc2S(C)(=O)=O)[nH]c(=O)n1-c1cccc(C(F)(F)F)c1 [Example 55, 3-Methanesulfonyl-4-{5-[5-methyl-2-oxo-1-(3-trifluoromethyl-phenyl)-2,3-dihydro-1H-imidazol-4-yl]-pyrazol-1-yl}-benzonitrile]
1 to 10 | Cc1c(-c2ccnn2-c2ccc(C#N)cc2Br)n(C(=O)NC2CCCC2)c(=O)n1-c1cccc(C(F)(F)F)c1 [Example 56, 5-[2-(2-Bromo-4-cyano-phenyl)-2H-pyrazol-3-yl]-4-methyl-2-oxo-3-(3-trifluoromethyl-phenyl)-2,3-dihydro-imidazole-1-carboxylic acid cyclopentylamide]
< 1 | Cc1c(-c2nccn2-c2ccc(C#N)cc2)n(C(=O)NC2CCCC2)c(=O)n1-c1cccc(C(F)(F)F)c1 [Example 60, 1-(4-Cyano-phenyl)-5′-methyl-2′-oxo-1′-(3-trifluoromethyl-phenyl)-1′,2′-dihydro-1H-[2,4]biimidazolyl-3′-carboxylic acid cyclopentylamide]
< 1 | Cc1c(-c2nccn2-c2ccc(C#N)cc2)n(C(=O)NC2CCC2)c(=O)n1-c1cccc(C(F)(F)F)c1 [Example 61, 1-(4-Cyano-phenyl)-5′-methyl-2′-oxo-1′-(3-trifluoromethyl-phenyl)-1′,2′-dihydro-1H-[2,4′]biimidazolyl-3′-carboxylic acid cyclobutylamide]
< 1 | Cc1c(-c2ncnn2-c2ccc(C#N)cc2)n(C(=O)NC2CCCC2)c(=O)n1-c1cccc(C(F)(F)F)c1 [Example 63, 5-[2-(4-Cyano-phenyl)-2H-[1,2,4]triazol-3-yl]-4-methyl-2-oxo-3-(3-trifluoromethyl-phenyl)-2,3-dihydro-imidazole-1-carboxylic acid cyclopentylamide]
